From US10213433B2 (AbbVie Inc., priority 2010, dated 2019)
pKi: −log10 of the molar value.

Biological target: Bcl-2 protein (Homo sapiens (Human), UniProt P10415)
Assay: Bcl-2 binding TR-FRET (Time-Resolved Fluorescence-Resonance-Energy-Transfer) assay
Conditions: inhibition constant for binding to Bcl-2 protein
From the text: The smaller the Ki value, the greater is the binding affinity.

Chain of Bcl-2 protein (P10415 whole entry): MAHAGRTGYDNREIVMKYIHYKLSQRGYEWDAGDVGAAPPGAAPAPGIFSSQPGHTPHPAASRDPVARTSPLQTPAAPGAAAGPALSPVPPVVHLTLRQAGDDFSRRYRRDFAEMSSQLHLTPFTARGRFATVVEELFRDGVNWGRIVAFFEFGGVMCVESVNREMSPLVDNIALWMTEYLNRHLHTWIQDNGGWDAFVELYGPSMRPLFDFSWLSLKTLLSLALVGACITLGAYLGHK

Compared with `C[C@]1(O)CC[C@@H](COc2ncc(S(=O)(=O)NC(=O)c3ccc(N4CCN(CC5=C(c6ccc(Cl)cc6)CC6(CC5)CC6)CC4)cc3Oc3cnc4[nH]ccc4c3)cc2Cl)CC1` [Compound 341, N-({5-chloro-6-[(trans-4-hydroxy-4-methylcyclohexyl)methoxy]pyridin-3-yl}sulfonyl)-4-(4-{[5-(4-chlorophenyl)spiro[2.5]oct-5-en-6-yl]methyl}piperazin-1-yl)-2-(1H-pyrrolo[2,3-b]pyridin-5-yloxy)benzamide], `CC1(C)CCC(CN2CCN(c3ccc(C(=O)NS(=O)(=O)c4ccc(OC[C@H]5CC[C@@](C)(O)CC5)c(Cl)c4)c(Oc4cnc5[nH]ccc5c4)c3)CC2)=C(c2ccc(Cl)cc2)C1` [Compound 362, N-({3-chloro-4-[(trans-4-hydroxy-4-methylcyclohexyl)methoxy]phenyl}sulfonyl)-4-(4-{[2-(4-chlorophenyl)-4,4-dimethylcyclohex-1-en-1-yl]methyl}piperazin-1-yl)-2-(1H-pyrrolo[2,3-b]pyridin-5-yloxy)benzamide] is lower in pKi: over 11.00 for the first, 10.80 for the second.

`CC1(C)CCC(CN2CCN(c3ccc(C(=O)NS(=O)(=O)c4cnc(OCC5CCc6nccn6C5)c(Cl)c4)c(Oc4cnc5[nH]ccc5c4)c3)CC2)=C(c2ccc(Cl)cc2)C1` (stereo not shown) [Compound 342, 4-(4-{[2-(4-chlorophenyl)-4,4-dimethylcyclohex-1-en-1-yl]methyl}piperazin-1-yl)-N-{[5-chloro-6-(5,6,7,8-tetrahydroimidazo[1,2-a]pyridin-6-ylmethoxy)pyridin-3-yl]sulfonyl}-2-(1H-pyrrolo[2,3-b]pyridin-5-yloxy)benzamide] and `CC1(C)CCC(CN2CCN(c3ccc(C(=O)NS(=O)(=O)c4cnc(OC[C@]5(F)CC[C@@H](O)CC5)c(Cl)c4)c(Oc4cnc5[nH]ccc5c4)c3)CC2)=C(c2ccc(Cl)cc2)C1` [Compound 350, N-({5-chloro-6-[(cis-1-fluoro-4-hydroxycyclohexyl)methoxy]pyridin-3-yl}sulfonyl)-4-(4-{[2-(4-chlorophenyl)-4,4-dimethylcyclohex-1-en-1-yl]methyl}piperazin-1-yl)-2-(1H-pyrrolo[2,3-b]pyridin-5-yloxy)benzamide] cannot be ordered by pKi: over 11.00 for the first, over 11.00 for the second.

`O=C(NS(=O)(=O)c1cnc(OCC2(F)CCN(C3COC3)CC2)c(Cl)c1)c1ccc(N2CCN(CC3=C(c4ccc(Cl)cc4)CC4(CC3)CC4)CC2)cc1Oc1cnc2[nH]ccc2c1` [Compound 345, N-[(5-chloro-6-{[4-fluoro-1-(oxetan-3-yl)piperidin-4-yl]methoxy}pyridin-3-yl)sulfonyl]-4-(4-{[5-(4-chlorophenyl)spiro[2.5]oct-5-en-6-yl]methyl}piperazin-1-yl)-2-(1H-pyrrolo[2,3-b]pyridin-5-yloxy)benzamide] and `CC1(C)CCC(CN2CCN(c3ccc(C(=O)NS(=O)(=O)c4ccc(OCC5(F)CCN(C6COC6)CC5)c(C#N)c4)c(Oc4cnc5[nH]ccc5c4)c3)CC2)=C(c2ccc(Cl)cc2)C1` [Compound 357, 4-(4-{[2-(4-chlorophenyl)-4,4-dimethylcyclohex-1-en-1-yl]methyl}piperazin-1-yl)-N-[(3-cyano-4-{[4-fluoro-1-(oxetan-3-yl)piperidin-4-yl]methoxy}phenyl)sulfonyl]-2-(1H-pyrrolo[2,3-b]pyridin-5-yloxy)benzamide] cannot be ordered by pKi: over 11.00 for the first, over 11.00 for the second.

`CC1(C)CCC(CN2CCN(c3ccc(C(=O)NS(=O)(=O)c4ccc(OCC5CCC6(CC5)COC6)c([N+](=O)[O-])c4)c(Oc4cnc5[nH]ccc5c4)c3)CC2)=C(c2ccc(Cl)cc2)C1` [Compound 351, 4-(4-{[2-(4-chlorophenyl)-4,4-dimethylcyclohex-1-en-1-yl]methyl}piperazin-1-yl)-N-{[3-nitro-4-(2-oxaspiro[3.5]non-7-ylmethoxy)phenyl]sulfonyl}-2-(1H-pyrrolo[2,3-b]pyridin-5-yloxy)benzamide] and `CC[C@]1(O)CC[C@@H](CNc2ccc(S(=O)(=O)NC(=O)c3ccc(N4CCN(CC5=C(c6ccc(Cl)cc6)CC(C)(C)CC5)CC4)cc3Oc3cnc4[nH]ccc4c3)cc2[N+](=O)[O-])CC1` [Compound 358, 4-(4-{[2-(4-chlorophenyl)-4,4-dimethylcyclohex-1-en-1-yl]methyl}piperazin-1-yl)-N-[(4-{[(trans-4-ethyl-4-hydroxycyclohexyl)methyl]amino}-3-nitrophenyl)sulfonyl]-2-(1H-pyrrolo[2,3-b]pyridin-5-yloxy)benzamide] cannot be ordered by pKi: over 11.00 for the first, over 11.00 for the second.

`O=C(NS(=O)(=O)c1ccc(NCC2CCOCC2)c([N+](=O)[O-])c1)c1ccc(N2CCN(CC3=C(c4ccc(Cl)cc4)CCC(CF)(CF)C3)CC2)cc1Oc1cnc2[nH]ccc2c1` [Compound 353, 4-(4-{[2-(4-chlorophenyl)-5,5-bis(fluoromethyl)cyclohex-1-en-1-yl]methyl}piperazin-1-yl)-N-({3-nitro-4-[(tetrahydro-2H-pyran-4-ylmethyl)amino]phenyl}sulfonyl)-2-(1H-pyrrolo[2,3-b]pyridin-5-yloxy)benzamide] and `COCC1(C)CCC(c2ccc(Cl)cc2)=C(CN2CCN(c3ccc(C(=O)NS(=O)(=O)c4ccc(NCC5CCOCC5)c([N+](=O)[O-])c4)c(Oc4cnc5[nH]ccc5c4)c3)CC2)C1` (stereo not shown) [Compound 360, 4-(4-{[2-(4-chlorophenyl)-5-(methoxymethyl)-5-methylcyclohex-1-en-1-yl]methyl}piperazin-1-yl)-N-({3-nitro-4-[(tetrahydro-2H-pyran-4-ylmethyl)amino]phenyl}sulfonyl)-2-(1H-pyrrolo[2,3-b]pyridin-5-yloxy)benzamide] cannot be ordered by pKi: over 11.00 for the first, over 11.00 for the second.

`CC[C@]1(O)CC[C@H](CNc2ccc(S(=O)(=O)NC(=O)c3ccc(N4CCN(CC5=C(c6ccc(Cl)cc6)CC(C)(C)CC5)CC4)cc3Oc3cnc4[nH]ccc4c3)cc2[N+](=O)[O-])CC1` [Compound 359, 4-(4-{[2-(4-chlorophenyl)-4,4-dimethylcyclohex-1-en-1-yl]methyl}piperazin-1-yl)-N-[(4-{[(cis-4-ethyl-4-hydroxycyclohexyl)methyl]amino}-3-nitrophenyl)sulfonyl]-2-(1H-pyrrolo[2,3-b]pyridin-5-yloxy)benzamide] and `CC1(C)CCC(CN2CCN(c3ccc(C(=O)NS(=O)(=O)c4ccc(NC[C@H]5CN(C6COC6)CCO5)c([N+](=O)[O-])c4)c(Oc4cnc5[nH]ccc5c4)c3)CC2)=C(c2ccc(Cl)cc2)C1` [Compound 361, 4-(4-{[2-(4-chlorophenyl)-4,4-dimethylcyclohex-1-en-1-yl]methyl}piperazin-1-yl)-N-{[3-nitro-4-({[(2S)-4-(oxetan-3-yl)morpholin-2-yl]methyl}amino)phenyl]sulfonyl}-2-(1H-pyrrolo[2,3-b]pyridin-5-yloxy)benzamide] cannot be ordered by pKi: over 11.00 for the first, over 11.00 for the second.

`CC1(C)CCC(CN2CCN(c3ccc(C(=O)NS(=O)(=O)c4cnc(NCC5CCOCC5)c([N+](=O)[O-])c4)c(Oc4cnc5[nH]ccc5c4)c3)CC2)=C(c2ccc(Cl)cc2)C1` [Compound 364, 4-(4-{[2-(4-chlorophenyl)-4,4-dimethylcyclohex-1-en-1-yl]methyl}piperazin-1-yl)-N-({5-nitro-6-[(tetrahydro-2H-pyran-4-ylmethyl)amino]pyridin-3-yl}sulfonyl)-2-(1H-pyrrolo[2,3-b]pyridin-5-yloxy)benzamide] was tested, and the pKi was over 11.00.
